Experimental data: ChEMBL document CHEMBL1201862, “PubChem BioAssay data set” (2004)
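Briefly, cells in 96-well plates were exposed to five compound concentrations for 48 h, and endpoints were estimated by linear interpolation. GI50: concentration for 50% inhibition of growth.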 Calls of active or inactive are those of the source. No stated cut-off is given here; in the data, active = GI50 up to about 1.1 µM and inactive = higher.

Columns and labels:
Assay in all cases: inhibition of tumour cell growth, NCI panel, 48 h
OVCAR-5 = system: OVCAR-5
SN12C = system: SN12C
COLO 205 = system: COLO 205
CCRF-CEM = system: CCRF-CEM
K562 = system: K562
U-251 = system: U-251
ACHN = system: ACHN
IGROV-1 = system: IGROV-1
UO-31 = system: UO-31
SNB-75 = system: SNB-75
786-0 = system: 786-0
OVCAR-4 = system: OVCAR-4
A498 = system: A498
UACC-257 = system: UACC-257
HCC 2998 = system: HCC 2998
LXFL 529 = system: LXFL 529
MDA-MB-435 = system: MDA-MB-435
MDA-MB-231 = system: MDA-MB-231
DU-145 = system: DU-145
T47D = system: T47D

| SMILES | GI50 (OVCAR-5) | GI50 (SN12C) | GI50 (COLO 205) | GI50 (CCRF-CEM) | GI50 (K562) | GI50 (U-251) | GI50 (ACHN) | GI50 (IGROV-1) | GI50 (UO-31) | GI50 (SNB-75) | GI50 (786-0) | GI50 (OVCAR-4) | GI50 (A498) | GI50 (UACC-257) | GI50 (HCC 2998) | GI50 (LXFL 529) | GI50 (MDA-MB-435) | GI50 (MDA-MB-231) | GI50 (DU-145) | GI50 (T47D) |
| --- | --- | --- | --- | --- | --- | --- | --- | --- | --- | --- | --- | --- | --- | --- | --- | --- | --- | --- | --- | --- |
| CCN(CC)CC(=O)/C=C/c1ccc(C)cc1 | 42.3 µM (inactive) | 17.6 µM (inactive) | 18.8 µM (inactive) | 2.93 µM (inactive) | 35.6 µM (inactive) | 16.5 µM (inactive) | 19.2 µM (inactive) | 20.8 µM (inactive) | 20.1 µM (inactive) | 24.3 µM (inactive) | 17.6 µM (inactive) | 15.8 µM (inactive) | 56 µM (inactive) | 21.6 µM (inactive) | 17.9 µM (inactive) | 18.6 µM (inactive) | – | – | – | – |
| Oc1cc(-c2ccccc2)nc2cc(Cl)ccc12 | > 100 µM (inactive) | 3.3 µM (inactive) | 0.697 µM (active) | 0.432 µM (active) | 0.382 µM (active) | 0.509 µM (active) | 0.914 µM (active) | 0.54 µM (active) | 5.06 µM (inactive) | 0.352 µM (active) | 0.507 µM (active) | 9.14 µM (inactive) | 1.35 µM (inactive) | 14.1 µM (inactive) | 0.897 µM (active) | 0.805 µM (active) | – | – | – | – |
| COC(=O)C1=CCS(=O)(=O)C1 | > 100 µM (inactive) | > 100 µM (inactive) | > 100 µM (inactive) | > 10 µM (inactive) | > 100 µM (inactive) | – | > 100 µM (inactive) | > 100 µM (inactive) | > 100 µM (inactive) | > 100 µM (inactive) | > 100 µM (inactive) | > 100 µM (inactive) | > 100 µM (inactive) | > 100 µM (inactive) | > 100 µM (inactive) | > 100 µM (inactive) | – | – | – | – |
| O=C1CC[C@@H](NC(=O)Cc2ccccc2)C(=O)N1 | > 100 µM (inactive) | > 100 µM (inactive) | > 100 µM (inactive) | > 100 µM (inactive) | > 100 µM (inactive) | > 100 µM (inactive) | > 100 µM (inactive) | > 100 µM (inactive) | > 100 µM (inactive) | > 100 µM (inactive) | > 100 µM (inactive) | > 100 µM (inactive) | > 100 µM (inactive) | > 100 µM (inactive) | > 100 µM (inactive) | > 100 µM (inactive) | – | – | – | – |
| CO[C@H]1CC[C@]2(C)C3=CC[C@@]4(C)C(CC[C@@H]4C(C)CC[C@@H](C)C(C)C)C(=CCC2C1)O3 (stereo partly specified) | > 25 µM (inactive) | > 25 µM (inactive) | > 25 µM (inactive) | > 25 µM (inactive) | > 25 µM (inactive) | > 25 µM (inactive) | > 25 µM (inactive) | > 25 µM (inactive) | > 25 µM (inactive) | > 25 µM (inactive) | > 25 µM (inactive) | > 25 µM (inactive) | > 25 µM (inactive) | > 25 µM (inactive) | > 25 µM (inactive) | > 25 µM (inactive) | – | – | – | – |
| COC(=O)N/N=C(/CCN1CCCC1)CC(c1ccccc1)c1c(O)c2ccccc2oc1=O (stereo unspecified) | > 100 µM (inactive) | > 100 µM (inactive) | > 100 µM (inactive) | > 100 µM (inactive) | > 100 µM (inactive) | > 100 µM (inactive) | > 100 µM (inactive) | > 100 µM (inactive) | 61.4 µM (inactive) | 30.1 µM (inactive) | > 100 µM (inactive) | > 100 µM (inactive) | > 100 µM (inactive) | > 100 µM (inactive) | > 100 µM (inactive) | > 100 µM (inactive) | – | – | – | – |
| Cc1cc(C)c(-n2c(-c3ccc(Br)cc3)cs/c2=N\N=C2C=C(C(C)(C)C)C(=O)C(C(C)(C)C)=C2)c(C)c1 | > 100 µM (inactive) | > 100 µM (inactive) | > 100 µM (inactive) | > 100 µM (inactive) | > 100 µM (inactive) | 31.2 µM (inactive) | > 100 µM (inactive) | > 63.7 µM (inactive) | > 100 µM (inactive) | 17.5 µM (inactive) | > 100 µM (inactive) | > 100 µM (inactive) | 31.3 µM (inactive) | > 100 µM (inactive) | > 100 µM (inactive) | > 100 µM (inactive) | > 100 µM (inactive) | 55.3 µM (inactive) | > 100 µM (inactive) | > 100 µM (inactive) |
| N#CC(/C(=N/NC(N)=S)C(=O)Nc1cccc(Cl)c1)c1ccccc1 (stereo unspecified) | > 100 µM (inactive) | > 100 µM (inactive) | > 100 µM (inactive) | > 100 µM (inactive) | > 100 µM (inactive) | > 100 µM (inactive) | > 100 µM (inactive) | > 100 µM (inactive) | > 100 µM (inactive) | 38.8 µM (inactive) | > 100 µM (inactive) | > 100 µM (inactive) | > 100 µM (inactive) | > 100 µM (inactive) | > 100 µM (inactive) | > 100 µM (inactive) | – | – | – | – |
